Data from patent publication US9695175B2, “Highly selective c-Met inhibitors as anticancer agents” (Crown Bioscience Inc. (Taiwan), priority 2012, dated 2017).

Experiments:
[1] = molecular target: c-Met kinase (1038-1346AA) (Homo sapiens (Human), UniProt P08581); assay: c-Met in vitro kinase assay (Lance Ultra ULight-TK); assay type: biochemical; conditions: c-Met kinase 12.5 nM, ATP 2.5 uM, 30° C.; read-out: c-Met Enzyme IC50
Description: c-Met In Vitro Kinase Assay [Method] Use Lance@Ultra Ulight™-TK test kits from PerKinElmer to evaluate the inhibition of c-Met kinase by the compounds [Instrument] ENVISION plate reader of PerKinElmer […] Then ATP (final concentration 2.5 uM) and kinase substrate (final concentration 50 nM) are added. […] After 1 hr, the plate is read at 615 nm and 665 nm. The ratio of […] at 665 nm and 615 nm is calculated and used for the data analysis as follows. This assay has a Minimum Significant Ratio (MSA) of 2-3. [Samples] All exampled compounds and Crizotinib as the positive control [Data Analysis] Background—the ratio of 665 nm/615 nm (no enzyme):0.003285 • Max—the ratio of 665 nm/615 nm (no test compound):0.075356 [formula] [Software] Use CBIS data analysis software to calculate IC50 values

[2] = molecular target: c-Met protein in S114 cells (Homo sapiens (Human), UniProt P08581); assay: S114 cell-based ELISA, phosphorylation of c-Met protein; conditions: 30 min compound incubation, phospho-c-Met ELISA
c-Met protein in S114 cells, sequence (P08581 25-1390): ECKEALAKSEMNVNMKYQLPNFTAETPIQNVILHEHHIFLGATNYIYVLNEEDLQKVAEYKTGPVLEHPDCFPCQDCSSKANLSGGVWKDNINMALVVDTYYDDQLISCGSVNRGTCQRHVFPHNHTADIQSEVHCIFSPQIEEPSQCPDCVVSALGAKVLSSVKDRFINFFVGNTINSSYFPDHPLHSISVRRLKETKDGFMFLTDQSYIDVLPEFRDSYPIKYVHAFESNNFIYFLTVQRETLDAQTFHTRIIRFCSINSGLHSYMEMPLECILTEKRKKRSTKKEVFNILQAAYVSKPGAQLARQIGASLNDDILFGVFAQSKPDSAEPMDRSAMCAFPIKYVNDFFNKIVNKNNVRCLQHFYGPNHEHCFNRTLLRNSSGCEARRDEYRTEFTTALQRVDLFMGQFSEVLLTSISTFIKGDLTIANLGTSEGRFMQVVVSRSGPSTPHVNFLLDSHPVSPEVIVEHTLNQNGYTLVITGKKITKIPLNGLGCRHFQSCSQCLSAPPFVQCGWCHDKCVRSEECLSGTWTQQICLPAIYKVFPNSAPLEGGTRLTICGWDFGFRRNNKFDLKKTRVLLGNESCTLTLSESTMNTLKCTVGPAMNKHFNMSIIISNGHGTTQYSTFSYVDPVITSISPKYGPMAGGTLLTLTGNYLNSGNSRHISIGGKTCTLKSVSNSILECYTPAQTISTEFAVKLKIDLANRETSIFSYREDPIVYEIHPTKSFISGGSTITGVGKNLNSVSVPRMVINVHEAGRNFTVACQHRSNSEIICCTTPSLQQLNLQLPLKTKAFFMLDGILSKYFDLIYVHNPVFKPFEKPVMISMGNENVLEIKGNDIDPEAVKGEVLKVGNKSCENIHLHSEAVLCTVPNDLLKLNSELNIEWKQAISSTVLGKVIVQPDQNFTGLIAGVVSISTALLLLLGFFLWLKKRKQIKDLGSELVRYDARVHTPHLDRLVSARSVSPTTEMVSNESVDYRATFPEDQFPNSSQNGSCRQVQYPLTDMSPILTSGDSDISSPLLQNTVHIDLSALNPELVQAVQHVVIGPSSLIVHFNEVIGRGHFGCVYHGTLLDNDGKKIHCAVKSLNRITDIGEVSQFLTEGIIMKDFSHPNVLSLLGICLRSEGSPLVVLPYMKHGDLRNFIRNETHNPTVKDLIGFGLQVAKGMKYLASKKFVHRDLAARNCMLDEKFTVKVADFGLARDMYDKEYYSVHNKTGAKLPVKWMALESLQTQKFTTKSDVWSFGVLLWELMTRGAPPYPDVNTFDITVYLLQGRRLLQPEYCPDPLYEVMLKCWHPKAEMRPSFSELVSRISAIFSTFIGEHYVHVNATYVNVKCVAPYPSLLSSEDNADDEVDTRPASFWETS
Description: Cell-Based ELISA [Method] Use ELISA to measure the phosphorylation of c-Met protein in […] cells [Instrument] ENVISION plate reader of PerKinElmer […] [Procedure] […] cells are cultured in DMEM medium (containing 10% FBS). When cells reach 80% confluency, they are collected by trypsinization and centrifugation at 800 rpm for 5 min. The cells are re-suspended in DMEM and adjusted to a density of 500,000 cells/mL. A 96-well plate is pretreated with a solution of Firbronectin in PBS (5 μg/mL) at 100 μL per well for 2 hr. The cell suspension is split into the 96-well culture plate at 100 uL per well and incubated (37° C., 5% CO2) overnight. The capture antibody is diluted with 1/2 Tris-ammonium bicarbonate buffer (1:1000) and transferred into a 96-well absorption plate (70 μL per well) at 4° C. overnight. The solution is discarded and the plate is washed with blocking buffer, followed by adding blocking buffer (150 μL per well), and kept at room temperature for 1 hr. The medium in the 96-well culture plate is discarded and the plate is washed with DMEM (without FBS). Then 80 μL of DMEM (without FBS) and 20 μL of test compound solution at various concentrations in DMEM (without FBS) are added. The culture plate is kept in a culture incubator for 30 min (37° C., 5% CO2). The cell culture medium is discarded and the culture plate is washed with PBS, followed by adding lysis buffer (50 μL per well) and incubated at 4° C. for 20 min. The solution in the absorption plate is discarded and the plate is washed with binding buffer. To each well of the absorption plate is added binding buffer (50 μL) and lysate (40 μL) from the above culture plate; then the plate is incubated at room temperature for 2 hours. The culture medium is discarded and the plate is washed twice with binding buffer, followed by adding a solution of 1st antibody (diluted with binding buffer 1:1000, 100 μL per well) and incubated at 37° C. for 1 hr. The solution is discarded and the plate is washed twice with binding buffer. Then a solution of 2nd antibody is added (100 μL per well) and incubated at 37° C. for another hour. The medium is discarded and the plate is washed twice with binding buffer and once with PBS. To each well, 100 μL of A.B.T.S solution is added and incubated at 37° C. for 30 min. Then OD405 is analyzed on an ENVISION plate reader. This assay has a Minimum Significant Ratio (MSA) of 2-3. [Samples] All exemplified compounds and Crizotinib as the positive control [Data Analysis] Background (no cell lysate): 0.084 • Max (no test compound): 0.517 [formula] [Software] Use CBIS data analysis software to calculate IC50 values

c-Met kinase (1038-1346AA), sequence (P08581 1038-1346): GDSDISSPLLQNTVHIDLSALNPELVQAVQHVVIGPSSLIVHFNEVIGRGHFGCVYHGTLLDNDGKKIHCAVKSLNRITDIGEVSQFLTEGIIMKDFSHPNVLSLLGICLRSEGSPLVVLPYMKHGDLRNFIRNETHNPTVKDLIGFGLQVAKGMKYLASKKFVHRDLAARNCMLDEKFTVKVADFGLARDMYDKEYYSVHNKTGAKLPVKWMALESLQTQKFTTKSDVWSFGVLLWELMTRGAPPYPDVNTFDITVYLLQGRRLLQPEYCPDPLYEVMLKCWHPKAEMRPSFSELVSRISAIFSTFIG

| IC50 [1] | IC50 [2] | SMILES |
| --- | --- | --- |
| 38 nM | 22 nM | Cn1cc2cc(C(F)(F)c3nnc4ncc(-c5cnn(C6CC6)c5)cn34)c(F)cc2n1 [Example 47] |
| 38 nM | 65 nM | Nc1nc2cc(F)c(Cc3nnc4ccc(-c5cnn(C6CC6)c5)nn34)cc2s1 [Example 49] |
| 1440 nM | 527 nM | Fc1cc2n[nH]cc2cc1C(F)(F)c1nnc2ccc(-c3cnn(C4CC4)c3)nn12 [Example 50] |
